Results published in patent publication US20180085452A1, “MATRIX-EMBEDDED TOLERANCE-PROMOTING ADJUVANTS FOR SUBCUTANEOUS IMMUNOTHERAPY” (Tolerogenics S.a.r.l,, priority 2016, published 2018).
Values after ≈ are worked out from the molar mass of the structure shown. Values joined by “and” are separate entries in the source; they are usually repeats but may differ in a detail not shown here. Equal entries are not always repeated. “Also recorded” adds a separate entry of the source. Where two headings read alike, the source gives them in different places.

Tests used:
[1] = cited from earlier work
phagocytes = conditions: approximately a threefold increase; cited from earlier work
[2] = during the first 24 hours; EP14075015.9; cited from earlier work
[3] = in vitro release of DexP from PLGA-PEG-PLGA hydrogel; format: physicochemical; conditions: 37° C., PBS
Protocol: A 20 mM stock solution of DexP in PBS (10.3 mg/ml; MW 516.4; Sigma-Aldrich) is diluted 1:40 in PBS (final concentration: 0.5 mM), and 20 μl of the diluted stock solution is combined with 160 μl of 25% gel solution and 20 μl of 10× PBS (final concentration of DexP: 0.05 mM).
The mixture of is incubated for 2 minutes at 37° C. to induce gelling and overlayed with 200 μl of 1× PBS. At frequent time points the supernatant is removed by pipetting and stored at 4° C. The removed supernatant is replaced by fresh 200 μl of 1× PBS. Controls of the same concentration of DexP in 1× PBS without gel are incubated and sampled in parallel.
Released DexP is determined with a spectrophotometric method (Singh and Verma, 2008). The method involves oxidation of the corticosteroid by iron (III) and subsequent complexation of iron (II) with potassium hexacynoferate (III), forming a bluish green coloured complex with maximum absorbance at 780 nm (Beer's law range: 10-50 μg/ml; molar absorptivity (M^−1cm^−1): for DexP 0.55×10^4).

rheumatoid arthritis [4] = tested on: rheumatoid arthritis; design: patients going into remission: dose or concentration left out as unconfirmed; conditions: on methotrexate therapy, cited from earlier work
[5] = cited from earlier work; remark: listed apart in the source
[6] = rodents; cited from earlier work
[7] = cited from earlier work; remark: listed apart in the source
calcium metabolism = conditions: in vivo studies in rats; cited from earlier work
[8] = cited from earlier work; remark: listed apart in the source
rats = conditions: cited from earlier work
mice = conditions: cited from earlier work
[9] = cited from earlier work; remark: listed apart in the source
[10] = tested on: experimental autoimmune encephalomyelitis (EAE); conditions: i.p. 5 μg/kg body weight every 2 days; cited from earlier work
[11] = tested on: TNFR1-mediated activation of NF-κB; conditions: cited from earlier work
rheumatoid arthritis [12] = conditions: placebo 29.2%, cited from earlier work
patients with RA = conditions: placebo 22.0%, cited from earlier work
[13] = cited from earlier work; remark: listed apart in the source
type 1 diabetes = conditions: cited from earlier work

Nc1ncnc2c1ncn2[C@@H]1O[C@H](COP(=O)(O)OP(=O)(O)OP(=O)(O)O)[C@@H](O)[C@H]1O [ATP]
solubility in ethanol ([1]; 25° C.): less than 1 mg/ml | concentration effecting maximal migration of phagocytes (phagocytes): about 100 nM | released from the hydrogel [2]: approx. 60%

C[C@@H]1C[C@H]2[C@@H]3CCC4=CC(=O)C=C[C@]4(C)[C@@]3(F)[C@@H](O)C[C@]2(C)[C@@]1(O)C(=O)COP(=O)(O)O [DexP, dexamethasone sodium phosphate]
hydrogel-embedded DexP released ([3]; after 2 days): 80-90% | hydrogel-embedded DexP released ([3]; within the first 6 hours): 30-50%

O=c1ccn([C@@H]2O[C@H](COP(=O)(O)OP(=O)(O)OP(=O)(O)O)[C@@H](O)[C@H]2O)c(=O)[nH]1 [UTP]
concentration effecting maximal migration of phagocytes (phagocytes): about 100 nM | released from the hydrogel [2]: approx. 60%

C=C1/C(=C\C=C2/CCC[C@]3(C)[C@@H]([C@H](C)CCCC(C)C)CC[C@@H]23)C[C@@H](O)C[C@@H]1O [alfacalcidiol]
patients with improvement of disease activity (rheumatoid arthritis [4]; 2 pg/day for 3 months): 89% | patients going into remission (rheumatoid arthritis [4]; for 3 months): 45%

C=C1CC[C@H](O)C/C1=C/C=C1\CCC[C@]2(C)[C@@H]([C@H](C)CCCC(C)(C)O)CC[C@@H]12 [calcidiol, 25-hydroxyvitamin D3]
plasma concentration that can produce vitamin D toxicity ([5]; Jones (2008)): above 0.75 μM; also recorded: approx. 300 ng/ml | calcidiol level at which toxicity occurs ([5]; Shephard and DeLuca (1980)): ≥ 500 ng/ml and approx. 1.25 μM | plasma concentrations tolerated with normo-calcemia [6]: 250 to 1000 nM

C=C1/C(=C\C=C2/CCC[C@]3(C)[C@@H]([C@H](C)/C=C/[C@@H](O)C4CC4)CC[C@@H]23)C[C@@H](O)C[C@@H]1O [calcipotriol]
rate of clearance, times higher than for calcitriol ([7]; rat, in vivo): approximately 140 times | half-life in circulation (serum half-life) ([7]; rats): 4 min | effect on calcium metabolism, times less than calcitriol (calcium metabolism): 100-200 times | applied dose absorbed systemically ([8]; ointment applied to normal skin): ~5% | applied dose absorbed systemically ([8]; ointment applied topically to psoriasis plaques): approximately 6% | single s.c. dose up to which no death occurred (rats): ≤ 540 μg/kg body weight

C=C1/C(=C\C=C2/CCC[C@]3(C)[C@@H]([C@H](C)CCCC(C)(C)O)CC[C@@H]23)C[C@@H](O)C[C@@H]1O [calcitriol, 1α,25-dihydroxyvitamin D3]
solubility in a 1:5 solution of ethanol:PBS ([1]; 1:5 ethanol:PBS, pH 7.2): approx. 0.15 mg/ml | dose that can be administered as a single bolus i.p. injection (mice; in 0.2 ml of normal saline): up to 500 ng/mouse | dose above which mice can become hypercalcemic on day 2 or day 3 (mice; single bolus i.p.): higher than 750 ng/mouse | single oral dose relatively well tolerated (only grade 1 to 2 adverse events) [9]: up to 165 μg | treated mice in which appearance of paralysis was prevented [10]: 70%

C[C@@H]1CCN(C(=O)CC#N)C[C@@H]1N(C)c1ncnc2[nH]ccc12 [free base of tofacitinib, tofacitinib]
solubility in DMSO ([1]; DMSO): 100 mg/mL (≈ 320 mM) | solubility in ethanol [1]: 100 mg/mL (≈ 320 mM) | maximum solubility in plain water ([1]; plain water, estimated): 10-20 μM and 3.12-6.24 μg/ml

O=C([O-])c1ccccc1O.[Na+] [sodium salicylate]
dose required for inhibition of TNFR1-mediated activation of NF-κB [11]: 10 to 20 mM

C[C@@H]1CCN(C(=O)CC#N)C[C@@H]1N(C)c1ncnc2[nH]ccc12 [tofacitinib]
ACR20 response rate by week 6 (rheumatoid arthritis [12]; 5 mg twice daily): 70.5% | ACR20 response rate by week 6 (rheumatoid arthritis [12]; 15 mg twice daily): 81.2% | ACR20 response rate by week 6 (rheumatoid arthritis [12]; 30 mg twice daily): 76.8% | ACR20 response at week 12 (patients with RA; 3 mg orally twice a day): 39.2% | ACR20 response at week 12 (patients with RA; 5 mg orally twice a day): 59.2% | ACR20 response at week 12 (patients with RA; 10 mg orally twice a day): 70.5% | ACR20 response at week 12 (patients with RA; 15 mg orally twice a day): 71.9% | in vivo half-life [13]: 2 to 3 h

vitamin D
relative risk of type 1 diabetes over the subsequent 30 years (type 1 diabetes; doses of exactly 50 μg/day): 0.22 | relative risk of type 1 diabetes over the subsequent 30 years (type 1 diabetes; doses of over 50 μg/day (2000 IU/d) during infancy): 0.14
